Source: US20050261174A1, “Insecticidal activity of a cyclic peptide” (priority 2004, published 2005)
Several values for one entry are separate records, joined by “and”; a condition that tells them apart may be missing. Identical values can stand only once. Entries after “also recorded” stand apart in the source; their conditions may differ.

Tests used:
Assay type in all cases: in vivo
[1] = system: beet armyworm (Spodoptera exigua); experiment: Beet armyworm topical test
Experimental: Insecticidal Test for Beet Armyworm (Spodoptera exigua) in Topical Assays.
To prepare topical solutions, 0.5 mg of test compound was dissolved into 0.5 ML of a 90:10 acetone:water solvent. A volume of 1 or 2 μl of the test solutions was topically applied to each of early fourth-instar beet armyworm larvae. Six larvae (6 replications) were used for each treatment. This application rate was equivalent to 1 or 2 μg per larva. Treated larvae were individually placed in wells of 6-well plastic plates and fed an artificial diet. Observations were made at one, two and three days after treatment.

[2] = system: cotton aphid (Aphis gossypii); experiment: Insecticidal test for cotton aphid, foliar spray on infested squash cotyledons; conditions: for % control: 3 days, population reduction versus untreated
Experimental: To prepare spray solutions, 0.5 mg of test compound was dissolved into 0.5 mL of a 90:10 acetone: water solvent. This 0.5 mL of chemical solution was added to 4.5 mL of water containing 0.025% Tween 20 surfactant to produce a 100 ppm spray solution. Lower concentrations were made by diluting the 100 ppm solution with water containing 0.025% Tween 20.
Squash cotyledons with a single cotyledon leaf were infested with cotton aphid (wingless adult and nymph) 16-20 hours prior to application of spray solution. The solution was sprayed with a hand-held Devilbiss sprayer on both sides of each infested squash cotyledon until runoff. Reference plants (solvent check) were sprayed with 0.025% Tween 20 containing 9% acetone. The plants were allowed to air dry and held for 3 days in a controlled room at 25° C. and 40% RH after which time the test was graded. Grading was by actual count using a dissecting microscope and comparison of test counts to the untreated check. Results are given in Table 2 as percent control based on population reduction versus the untreated.

[3] = system: green peach aphid (Myzus persicae); experiment: Insecticidal test for green peach aphid, foliar spray on infested cabbage seedlings; conditions: for No. of live aphid, average / No. of live aphid, plant 1 / No. of live aphid, plant 2 / No. of live aphid, plant 3 / No. of live aphid, plant 4: graded after three days; for % control: three days, population reduction versus untreated
Experimental: Insecticidal Test for Green Peach Aphid (Myzus persicae).
Cabbage seedlings grown in 3-inch pots, with 2-3 small (3-5 cm) true leaves, were used as test substrate. The seedlings were infested with green peach aphids (wingless adult and nymph) 2-3 days prior to chemical application. Four seedlings were used for each treatment. To prepare spray solutions, 0.5 mg of test compound was dissolved into 0.5 mL of a 90:10 acetone:water solvent. This 0.5 mL of chemical solution was added to 4.5 mL of water containing 0.025% Tween 20 surfactant to produce a 100 ppm spray solution. Lower concentrations were made by diluting the 100 ppm solution with water containing 0.025% Tween 20.
A hand-held Devilbiss sprayer was used for spraying a solution to both sides of cabbage leaves until runoff. Reference plants (solvent check) were sprayed with 0.025% Tween 20 containing 9% acetone. Treated plants were held in a holding room for three days at approximately 25° C. and 40% RH prior to grading. Evaluation was conducted by counting the number of live aphids per plant under a microscope. Results are given in Table 3 as percent control based on population reduction versus the untreated.

[4] = system: tobacco budworm (Heliothis virescens); experiment: Tobacco budworm dietary test; conditions: for Symptom, 1 day / Symptom, 3 day: second-instar larvae
Experimental: (§1) Insecticidal Test for Tobacco Budworm (Heliothis virescens), Beet Armyworm (Spodoptera exigua) and Cabbage Looper (Trichoplusia ni) in Dietary Assays.
(§2) Dietary assays were conducted in 128-well plastic trays. To prepare a 1000 ppm stock solution, 0.5 mg of test compound was dissolved into 0.5 mL of a 90:10 acetone:water solvent. The test solutions of 125 ppm and lower concentrations were made by sequentially diluting the stock solution with a 90:10 acetone: water solvent. A volume of 50 μl of the test solutions was pipetted upon the surface of 1 mL of lepidopteran diet (Southland Multi-Species Lepidopteran Diet) in each well of 128-well plastic trays. The highest application rate using the 125 ppm solution was equivalent to 3.1 μg/cm^2. For beet armyworm and cabbage looper, four wells (4 replications) were used for each treatment on each insect species. For tobacco budworm, eight wells (8 replications) were used for each treatment. A second-instar tobacco budworm, two second-instar beet armyworm or two early third-instar cabbage looper larvae were placed upon the treated diet in each well once the solvent had been air-dried. Trays containing the treated diet and larvae were covered with self-adhesive transparent sheets and held in a growth chamber at 25° C., 50-55% RH, and 16 h light: 8 h dark Observation were conducted 1 and 3 days after treatment and infestation.

[5] = system: beet armyworm (Spodoptera exigua); experiment: Beet armyworm dietary test; conditions: for Symptom, 1 day / Symptom, 3 day: second-instar larvae
Experimental: as §1, §2

[6] = system: cabbage looper (Trichoplusia ni); experiment: Cabbage looper dietary test; conditions: for Symptom, 1 day / Symptom, 3 day: early third-instar larvae
Experimental: as §1, §2

[7] = 4 PPM spray, graded after 3 days
[8] = 20 PPM spray, graded after 3 days
[9] = 100 PPM spray, graded after 3 days
[10] = 1.95 PPM (0.049 ug/cm2) on diet

SMILES: C/C=C1\NC(=O)[C@H]2CSSCC/C=C/[C@H](CC(=O)N[C@H](C(C)C)C(=O)N2)OC(=O)[C@H](C(C)C)NC1=O [compound of formula (I), FR901228]
- % Mortality, 1 day ([1]; 1 ug/larva topical, 1 day): 0%
- % Mortality, 2 day ([1]; 1 ug/larva topical): 17%
- % Mortality, 3 day ([1]; 1 ug/larva topical, 3 day): 67%
- % Mortality, 1 day ([1]; 2 ug/larva topical, 1 day): 0%
- % Mortality, 2 day ([1]; 2 ug/larva topical): 85%
- % Mortality, 3 day ([1]; 2 ug/larva topical, 3 day): 100%

SMILES: C/C=C1\NC(=O)C2CSSCC/C=C/C(CC(=O)NC(C(C)C)C(=O)N2)OC(=O)C(C(C)C)NC1=O (centres unmarked) [compound of formula (I), FR901228]
- % control ([2]; 4 PPM spray): 87%
- No. of live aphid, average [2, 7]: 27
- No. of live aphid, plant 1 [2, 7]: 27
- No. of live aphid, plant 2 [2, 7]: 40
- No. of live aphid, plant 3 [2, 7]: 64
- No. of live aphid, plant 4 [2, 7]: 83
- % control ([2]; 20 PPM spray): 95.2%
- No. of live aphid, average [2, 8]: 10
- No. of live aphid, plant 1 [2, 8]: 16
- No. of live aphid, plant 2 [2, 8]: 4
- % control ([2]; 100 PPM spray): 100%
- No. of live aphid, average [2, 9]: 0
- No. of live aphid, plant 1 [2, 9]: 0
- No. of live aphid, plant 2 [2, 9]: 0
- No. of live aphid, average ([3]; 20 PPM spray): 55
- No. of live aphid, plant 1 ([3]; 20 PPM spray): 47
- No. of live aphid, plant 2 ([3]; 20 PPM spray): 53
- No. of live aphid, plant 3 ([3]; 20 PPM spray): 87
- No. of live aphid, plant 4 ([3]; 20 PPM spray): 32
- % control ([3]; 20 PPM spray): 35.8%
- No. of live aphid, average ([3]; 100 PPM spray): 24
- No. of live aphid, plant 1 ([3]; 100 PPM spray): 8
- No. of live aphid, plant 2 ([3]; 100 PPM spray): 31
- No. of live aphid, plant 3 ([3]; 100 PPM spray): 30
- No. of live aphid, plant 4 ([3]; 100 PPM spray): 26
- % control ([3]; 100 PPM spray): 72.1%
- % Dead, 1 day ([4]; 1 PPM (0.025 ug/cm2) on diet): 0%
- % Dead, 3 day ([4]; 1 PPM (0.025 ug/cm2) on diet): 0%
- Symptom, 1 day ([4]; 1 PPM (0.025 ug/cm2) on diet): none
- % Dead, 1 day ([4]; 5 PPM (0.13 ug/cm2) on diet): 0%
- % Dead, 3 day ([4]; 5 PPM (0.13 ug/cm2) on diet): 0%
- Symptom, 1 day ([4]; 5 PPM (0.13 ug/cm2) on diet): 80% size of UTC
- Symptom, 3 day ([4]; 5 PPM (0.13 ug/cm2) on diet): 60% size of UTC
- % Dead, 1 day ([4]; 25 PPM (0.63 ug/cm2) on diet): 0%
- % Dead, 3 day ([4]; 25 PPM (0.63 ug/cm2) on diet): 0%
- Symptom, 1 day ([4]; 25 PPM (0.63 ug/cm2) on diet): 60% size of UTC
- Symptom, 3 day ([4]; 25 PPM (0.63 ug/cm2) on diet): 40% size of UTC
- % Dead, 1 day ([4]; 125 PPM (3.1 ug/cm2) on diet): 0%
- % Dead, 3 day ([4]; 125 PPM (3.1 ug/cm2) on diet): 0%
- % Dead, 1 day [5, 10]: 0%
- % Dead, 3 day [5, 10]: 0%
- Symptom, 1 day [5, 10]: 90% size of UTC
- Symptom, 3 day [5, 10]: 30% size of UTC
- % Dead, 1 day ([5]; 7.8 PPM (0.195 ug/cm2) on diet): 0%
- % Dead, 3 day ([5]; 7.8 PPM (0.195 ug/cm2) on diet): 0%
- Symptom, 1 day ([5]; 7.8 PPM (0.195 ug/cm2) on diet): 70% size of UTC
- Symptom, 3 day ([5]; 7.8 PPM (0.195 ug/cm2) on diet): 15% size of UTC
- % Dead, 1 day ([5]; 31.3 PPM (0.78 ug/cm2) on diet): 0%
- % Dead, 3 day ([5]; 31.3 PPM (0.78 ug/cm2) on diet): 0%
- Symptom, 1 day ([5]; 31.3 PPM (0.78 ug/cm2) on diet): 50% size of UTC
- Symptom, 3 day ([5]; 31.3 PPM (0.78 ug/cm2) on diet): 10% size of UTC
- % Dead, 1 day ([5]; 125 PPM (3.1 ug/cm2) on diet): 0%
- % Dead, 3 day ([5]; 125 PPM (3.1 ug/cm2) on diet): 100%
- Symptom, 1 day ([5]; 125 PPM (3.1 ug/cm2) on diet): 30% size of UTC
- Symptom, 3 day ([5]; 125 PPM (3.1 ug/cm2) on diet): all dead
- % Dead, 1 day [6, 10]: 0%
- % Dead, 3 day [6, 10]: 0%
- Symptom, 1 day [6, 10]: none
- Symptom, 3 day [6, 10]: none
- % Dead, 1 day ([6]; 7.8 PPM (0.195 ug/cm2) on diet): 0%
- % Dead, 3 day ([6]; 7.8 PPM (0.195 ug/cm2) on diet): 0%
- Symptom, 1 day ([6]; 7.8 PPM (0.195 ug/cm2) on diet): none
- Symptom, 3 day ([6]; 7.8 PPM (0.195 ug/cm2) on diet): 60% size of UTC
- % Dead, 1 day ([6]; 31.3 PPM (0.78 ug/cm2) on diet): 0%
- % Dead, 3 day ([6]; 31.3 PPM (0.78 ug/cm2) on diet): 0%
- Symptom, 1 day ([6]; 31.3 PPM (0.78 ug/cm2) on diet): none
- Symptom, 3 day ([6]; 31.3 PPM (0.78 ug/cm2) on diet): 40% size of UTC
- % Dead, 1 day ([6]; 125 PPM (3.1 ug/cm2) on diet): 25%
- % Dead, 3 day ([6]; 125 PPM (3.1 ug/cm2) on diet): 50%
- Symptom, 1 day ([1]; 1 ug/larva topical, early fourth-instar larvae, 1 day): 2 dying w/duiresis, and 2 unable to right, and 2 small, 1 OK
- Symptom, 3 day ([1]; 2 ug/larva topical, early fourth-instar larvae, 3 day): all dead; also recorded: w/duiresis
